# Laboratory results taken from patent publication US20200247794A1, “PHARMACOPHORES, COMPOUNDS AND METHODS HAVING APPLICATION IN THE TREATMENT OF CANCER THROUGH INHIBITION OF CYP17A1 AND CYP19A1” (MANGOSUTHU UNIVERSITY OF TECHNOLOGY, priority 2015, published 2020).
# Like-named read-outs stand apart in the source and are kept apart here.
# What was measured:
# [1] = target: T1, CYP17A1 (Homo sapiens, UniProt P05093); settings: cited from earlier work; for pIC50: −log IC50 (M), converted from literature IC50; for IC50: literature value, no unit in the table, nM
# T1 sequence (P05093 1-508): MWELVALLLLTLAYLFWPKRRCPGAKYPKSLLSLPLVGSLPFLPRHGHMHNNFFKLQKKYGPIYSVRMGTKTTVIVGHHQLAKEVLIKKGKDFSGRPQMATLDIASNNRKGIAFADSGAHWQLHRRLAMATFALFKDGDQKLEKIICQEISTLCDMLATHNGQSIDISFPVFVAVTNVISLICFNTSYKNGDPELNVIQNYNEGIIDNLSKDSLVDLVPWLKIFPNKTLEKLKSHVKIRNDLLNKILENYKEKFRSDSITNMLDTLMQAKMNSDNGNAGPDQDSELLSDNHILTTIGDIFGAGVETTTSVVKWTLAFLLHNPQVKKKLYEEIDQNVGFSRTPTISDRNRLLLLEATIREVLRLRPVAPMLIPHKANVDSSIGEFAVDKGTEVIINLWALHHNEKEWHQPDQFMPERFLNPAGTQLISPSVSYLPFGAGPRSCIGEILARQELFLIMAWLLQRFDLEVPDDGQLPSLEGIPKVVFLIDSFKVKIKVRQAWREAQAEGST
# [2] = target: T1, CYP17A1; assay: CYP17A1 inhibition (CYP17A1 bactosomes, progesterone substrate, LC-MS/MS); format: biochemical; parameters: purchased Cypex, Dundee, UK; host or cells: bacterial membranes (bactosomes); settings: for inhibitory potency of CYP17A1 (in words): summary of Table 2; for IC50: 20 pmol/ml bactosomes, 0.1 μM progesterone, 50 μM to 50 nM
# Method: CYP17A1 inhibition was measured using 20 pmol/ml CYP17A1 bactosomes (Cypex, Dundee, UK) and 0.1 μM progesterone as a substrate and 1 mM NADPH in 50 mM potassium phosphate buffer pH 7.4 containing 5 mM magnesium chloride. Inhibitors were dissolved in DMSO and serially diluted in seven ½ log steps, final concentrations ranging from 50 μM to 50 nM. Reaction volume was 100 μl and final DMSO concentration was 1% (v/v). Reactions were started by the addition of NADPH and incubated at 37° C. for 20 minutes with shaking at 1800 rpm on a Bioshake IQ (Q-Instruments, Jena, Germany). Reactions were terminated by the addition of 200 μl methanol containing 1 μM tolbutamide as an internal standard.
# [3] = target: T2, CYP3A4 (Homo sapiens, UniProt P08684); assay: CYP inhibition, 5 CYP bactosome mix: CYP3A4 (midazolam); format: in vitro ADME; settings: midazolam 2.5 μM
# T2 construct: purchased Cypex, Dundee CYP/XG001, Batch XG001001; host or cells: E. coli
# T2 sequence (P08684 whole entry): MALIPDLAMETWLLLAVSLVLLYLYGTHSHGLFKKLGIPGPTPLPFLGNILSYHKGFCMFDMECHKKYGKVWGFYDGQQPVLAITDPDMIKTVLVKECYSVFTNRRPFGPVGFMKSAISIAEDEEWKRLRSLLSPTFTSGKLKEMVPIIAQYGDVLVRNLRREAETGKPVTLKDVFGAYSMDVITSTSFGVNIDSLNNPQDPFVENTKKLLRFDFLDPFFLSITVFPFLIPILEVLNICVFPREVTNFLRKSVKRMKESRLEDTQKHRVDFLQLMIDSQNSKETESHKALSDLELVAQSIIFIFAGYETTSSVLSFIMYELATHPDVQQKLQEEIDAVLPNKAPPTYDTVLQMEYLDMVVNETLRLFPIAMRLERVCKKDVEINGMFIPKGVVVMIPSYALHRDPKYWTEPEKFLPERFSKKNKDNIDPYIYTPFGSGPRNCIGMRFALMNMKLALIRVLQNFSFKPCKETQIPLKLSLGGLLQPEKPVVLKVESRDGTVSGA
# Source text: (§1) CYP Inhibition Against Major 5 Human Liver CYPs in E. coli CYPEX Membranes
# The final DMSO concentration was 1%.
# [4] = target: T3, CYP1A2 (Homo sapiens, UniProt P05177); assay: CYP inhibition, 5 CYP bactosome mix: CYP1A2 (tacrine); format: in vitro ADME; settings: tacrine 0.5 μM
# T3 construct: purchased Cypex, Dundee CYP/XG001, Batch XG001001; host or cells: E. coli
# T3 sequence (P05177 1-516): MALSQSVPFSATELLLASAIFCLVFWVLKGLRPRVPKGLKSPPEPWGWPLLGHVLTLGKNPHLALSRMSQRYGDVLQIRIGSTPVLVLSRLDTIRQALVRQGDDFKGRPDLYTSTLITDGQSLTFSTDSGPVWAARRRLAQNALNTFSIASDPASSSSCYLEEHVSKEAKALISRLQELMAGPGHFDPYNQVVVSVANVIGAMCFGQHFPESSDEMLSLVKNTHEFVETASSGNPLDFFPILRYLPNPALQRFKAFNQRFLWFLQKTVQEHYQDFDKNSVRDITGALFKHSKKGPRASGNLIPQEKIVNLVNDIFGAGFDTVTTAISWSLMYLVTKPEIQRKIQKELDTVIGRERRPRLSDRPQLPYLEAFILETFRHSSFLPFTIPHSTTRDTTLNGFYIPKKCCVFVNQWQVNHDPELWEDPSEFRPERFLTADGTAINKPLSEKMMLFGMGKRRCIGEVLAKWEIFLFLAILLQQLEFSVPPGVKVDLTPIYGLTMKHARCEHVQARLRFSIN
# Source text: as §1
# The final DMSO concentration was 1%.
# [5] = target: T4, CYP2C9 (Homo sapiens, UniProt P11712); assay: CYP inhibition, 5 CYP bactosome mix: CYP2C9 (diclofenac); format: in vitro ADME; settings: diclofenac 2 μM
# T4 construct: purchased Cypex, Dundee CYP/XG001, Batch XG001001; host or cells: E. coli
# T4 sequence (P11712 whole entry): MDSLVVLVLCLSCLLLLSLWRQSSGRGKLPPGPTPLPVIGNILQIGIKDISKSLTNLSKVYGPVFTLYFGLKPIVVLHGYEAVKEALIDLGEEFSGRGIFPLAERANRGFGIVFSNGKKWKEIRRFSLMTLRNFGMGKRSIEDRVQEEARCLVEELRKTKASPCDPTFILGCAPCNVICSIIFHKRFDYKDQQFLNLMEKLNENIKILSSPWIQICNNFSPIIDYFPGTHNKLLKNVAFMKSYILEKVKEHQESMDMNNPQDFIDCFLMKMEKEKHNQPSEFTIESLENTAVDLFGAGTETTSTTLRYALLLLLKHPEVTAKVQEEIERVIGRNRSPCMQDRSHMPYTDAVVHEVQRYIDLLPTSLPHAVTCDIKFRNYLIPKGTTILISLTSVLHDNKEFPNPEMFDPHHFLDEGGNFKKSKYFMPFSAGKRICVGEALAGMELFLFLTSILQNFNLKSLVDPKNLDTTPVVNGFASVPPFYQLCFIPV
# Source text: as §1
# The final DMSO concentration was 1%.
# [6] = target: T5, CYP2C19 (Homo sapiens, UniProt P33261); assay: CYP inhibition, 5 CYP bactosome mix: CYP2C19 ((S)-mephenytoin); format: in vitro ADME; settings: (S)-mephenytoin 40 μM
# T5 construct: purchased Cypex, Dundee CYP/XG001, Batch XG001001; host or cells: E. coli
# T5 sequence (P33261 whole entry): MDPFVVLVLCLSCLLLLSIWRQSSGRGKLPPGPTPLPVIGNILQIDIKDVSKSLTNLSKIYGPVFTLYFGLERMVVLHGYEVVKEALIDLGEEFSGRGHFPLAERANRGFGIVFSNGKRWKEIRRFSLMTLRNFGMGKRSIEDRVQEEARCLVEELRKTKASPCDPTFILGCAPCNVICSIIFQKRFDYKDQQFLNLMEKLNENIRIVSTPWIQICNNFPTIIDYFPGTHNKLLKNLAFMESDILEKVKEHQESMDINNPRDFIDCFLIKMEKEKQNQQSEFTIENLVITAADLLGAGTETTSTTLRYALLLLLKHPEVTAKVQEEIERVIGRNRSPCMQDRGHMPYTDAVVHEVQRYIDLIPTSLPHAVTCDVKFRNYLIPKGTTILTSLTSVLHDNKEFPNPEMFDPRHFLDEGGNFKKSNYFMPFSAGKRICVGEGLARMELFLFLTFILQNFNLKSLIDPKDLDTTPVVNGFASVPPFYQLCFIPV
# Source text: as §1
# The final DMSO concentration was 1%.
# [7] = target: T6, CYP2D6 (Homo sapiens, UniProt P10635); assay: CYP inhibition, 5 CYP bactosome mix: CYP2D6 (bufuralol); format: in vitro ADME; settings: bufuralol 10 μM
# T6 construct: purchased Cypex, Dundee CYP/XG001, Batch XG001001; host or cells: E. coli
# T6 sequence (P10635 whole entry): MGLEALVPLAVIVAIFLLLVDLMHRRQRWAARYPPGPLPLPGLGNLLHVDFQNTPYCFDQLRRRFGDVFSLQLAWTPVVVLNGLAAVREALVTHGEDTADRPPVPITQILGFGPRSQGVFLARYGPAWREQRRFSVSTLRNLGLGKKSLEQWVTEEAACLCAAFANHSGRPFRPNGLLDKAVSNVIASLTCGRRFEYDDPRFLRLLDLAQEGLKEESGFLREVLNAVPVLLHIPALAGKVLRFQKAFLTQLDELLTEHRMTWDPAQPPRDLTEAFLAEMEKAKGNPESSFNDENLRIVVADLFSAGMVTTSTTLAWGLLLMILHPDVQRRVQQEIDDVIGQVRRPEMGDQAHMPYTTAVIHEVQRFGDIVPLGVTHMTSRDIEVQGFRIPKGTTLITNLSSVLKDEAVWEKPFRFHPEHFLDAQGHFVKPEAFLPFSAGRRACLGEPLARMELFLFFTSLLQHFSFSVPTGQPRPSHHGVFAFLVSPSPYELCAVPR
# Source text: as §1
# The final DMSO concentration was 1%.
# [8] = tested on: CYP1A2, CYP2C9, CYP2C19, CYP2D6, and CYP3A4; assay: CYP inhibition against major 5 human liver CYPs (panel, summary in words); format: in vitro ADME; settings: drug-drug interaction remark
# [9] = target: T7, CYP19A1 (Homo sapiens, UniProt P11511); assay: CYP19A1 inhibition (CYP19/MFC High Throughput Inhibitor Screen Kit, fluorescence); format: biochemical
# T7 sequence (P11511 1-503): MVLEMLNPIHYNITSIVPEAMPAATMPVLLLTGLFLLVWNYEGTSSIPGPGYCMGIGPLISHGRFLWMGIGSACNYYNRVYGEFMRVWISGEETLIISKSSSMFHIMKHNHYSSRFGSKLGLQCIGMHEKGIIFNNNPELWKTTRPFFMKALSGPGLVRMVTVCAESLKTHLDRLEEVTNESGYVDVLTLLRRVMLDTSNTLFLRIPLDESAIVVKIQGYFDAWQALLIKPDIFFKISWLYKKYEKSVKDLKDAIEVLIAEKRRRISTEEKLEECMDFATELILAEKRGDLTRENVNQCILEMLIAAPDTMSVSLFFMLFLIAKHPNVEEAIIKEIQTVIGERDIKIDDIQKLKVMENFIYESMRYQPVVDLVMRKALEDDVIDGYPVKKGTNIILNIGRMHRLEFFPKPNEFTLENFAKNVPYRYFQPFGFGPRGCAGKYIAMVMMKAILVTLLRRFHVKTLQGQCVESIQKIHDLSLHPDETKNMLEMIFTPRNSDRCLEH
# Method: Test compounds and control inhibitors were prepared as stocks in either Acetonitrile or DMSO from the solid compound. Compounds were serially diluted in ½ log steps in the same solvent.
# CYP19A1 inhibition experiments were performed using the CYP19/MFC High Throughput Inhibitor Screen Kit (Corning).
# CYP19A1 reactions were performed in black 96 well-plates (Greiner) according to the manufacturer's instructions. […] Final organic solvent concentrations were either 4% (v/v) acetonitrile or 0.5% (v/v) Dimethyl sulfoxide. The plates were covered with self-adhesive film lids and incubated for 10 minutes at 37° C. Reactions were terminated by the addition of 75 μl Stop Solution (100 mM Tris base in acetonitrile: MilliQ water (80:20).
# Fluorescence of 7-Hydroxy-4-trifluoromethylcoumarin (HFC) was measured on a SpectraMax® i3x (Molecular Devices) using 409 nm and 530 nm as excitation and emission wavelengths, respectively.
# The CYP activities for each test compound/positive control inhibitor at each concentration were converted to % of control activity (CA). The LC-MS/MS peak responses (CYP metabolite peak area/internal standard peak area) for each test compound or positive control inhibitor were used and the response for each sample was expressed as a percentage of an uninhibited control (DMSO incubation). The data were then expressed as (log(CA/100-CA) and used to generate a pseudo-Hill plot, the slope and y axis intercept are used to calculate the IC50-value according to the following equation.
# [10] = 7.5 pmol/ml CYP19A1, 25 μM MFC, top concentration 50 μM (acetonitrile) or 25 μM (DMSO), read-out: CYP19A1 IC50
Compound,inhibitory potency of CYP17A1 (in words) [2],IC50 [3],IC50 [4],IC50 [5],IC50 [2],IC50 [6],IC50 [7],inhibition of metabolic CYP450 isoforms (in words) [8],"IC50 [9, 10]",pIC50 [1],IC50 [1],IC50 [9]
O=C(NC1CC1)c1ccc2cc(C3(O)CCn4cncc43)ccc2c1 (racemic) [5bx [7]],–,–,–,–,–,–,–,–,–,6.600,–,–
"CNC(=O)c1ccc2cc(C(O)(c3cnc[nH]3)C(C)C)ccc2c1 (stereo not shown) [1 [11], 6-[1-Hydroxy-1-isopropyl(1H-imidazol-5-yl)methyl]-Nmethylnaphthalene-2-carboxamide]",–,–,–,–,–,–,–,–,–,7.800,–,–
Brc1ccc(Cc2ccncc2)cc1 [3g [11]],–,–,–,–,–,–,–,–,–,6.400,–,–
"COc1ccc(-c2ccc(Cc3ccncc3)cc2)cc1OC [9a [9], 4-[(3′,4′-Dimethoxybiphenyl-4-yl)methyl]pyridine]",–,–,–,–,–,–,–,–,–,–,52 nM,–
Cl.Fc1ccc(-c2ccc3c(c2)CCC3c2cccnc2)cc1 (stereo not shown) [15 [13]],–,–,–,–,–,–,–,–,–,4.700,–,–
"O=C(CSc1nnc(-c2c[nH]c3ccccc23)n1Cc1ccco1)NCc1ccccc1Cl [Compound 2, N-[(2-chlorophenyl)methyl]-2-({4-[(furan-2-yl)methyl]-5-(1H-indol-3-yl)-4H-1,2,4-triazol-3-yl}sulfanyl)acetamide]",micromolar levels,1.1 µM,4.5 µM,1.8 µM,> 50 µM,3.5 µM,8.1 µM,inhibit various CYP450 isoforms,–,–,–,–
"Cc1cccc(C(=O)OCCOc2ccc(S(N)(=O)=O)cc2)c1N [Compound 4, 2-(4-sulfamoylphenoxy)ethyl 2-amino-3-methylbenzoate]",–,3.3 µM,–,16 µM,–,1.5 µM,–,inhibit various CYP450 isoforms,–,–,–,43.5 µM
"O=C1COc2cc(NCc3cccc(C(=O)Nc4cccnc4)c3)c(O)cc2N1 [Compound 8, 3-{[(6-hydroxy-3-oxo-3,4-dihydro-2H-1,4-benzoxazin-7-yl)amino]methyl}-N-(pyridin-3-yl)benzamide]",–,2.8 µM,2.7 µM,7.9 µM,–,44.6 µM,> 50 µM,–,5.9 µM,–,–,–
"COc1cc2ccc([C@](O)(c3c[nH]cn3)C(C)C)cc2cc1OC [TAK700, [(1S)-1-(6,7-dimethoxy-2-naphthyl)-1-(1H-imidazol-4-yl)-2-methylpropan-1-ol]]",–,–,–,–,–,–,–,–,–,7.550,28 nM,–

# Second part, led by results:
inhibitory potency of CYP17A1 (in words) [2],IC50 [3],IC50 [4],IC50 [5],IC50 [2],IC50 [6],IC50 [7],inhibition of metabolic CYP450 isoforms (in words) [8],"IC50 [9, 10]",Compound,pIC50 [1],IC50 [1],IC50 [9]
micromolar levels,–,–,–,–,–,–,–,–,"CCCC(=O)Nc1ccc(C(=O)C(C)OC(=O)c2n[nH]c3ccccc23)cc1 (racemic) [Compound 6, 1-(4-butanamidophenyl)-1-oxopropan-2-yl-1H-indazole-3-carboxylate]",–,–,–
micromolar levels,14.6 µM,27.9 µM,6.1 µM,> 50 µM,14.9 µM,36.3 µM,inhibit various CYP450 isoforms,–,"CCc1ccc(NC(=O)c2cc(C(=O)c3cc(OC)ccc3O)coc2=N)cc1 [Compound 1, N-(4-ethylphenyl)-5-(2-hydroxy-5-methoxybenzoyl)-2-imino-2H-pyran-3-carboxamide]",–,–,–
–,> 50 µM,> 50 µM,> 50 µM,–,> 50 µM,> 50 µM,–,> 50 µM,"COC(C)C(=O)Nc1cccc(NC(C(N)=O)c2ccccc2)c1 (stereo not shown) [Compound 5, N-(3-{[carbamoyl(phenyl)methyl]amino}phenyl)-2-methoxypropanamide]",–,–,–
micromolar levels,0.7 µM,> 50 µM,–,–,> 50 µM,> 50 µM,–,> 25 µM,"O=C1COc2cc(NCc3cccc(NC(=O)c4ccccc4Cl)c3)c(Cl)cc2N1 [Compound 7, 2-chloro-N-(3-{[(6-chloro-3-oxo-3,4-dihydro-2H-1,4-benzoxazin-7-yl)amino]methyl}phenyl)benzamide]",–,–,–
micromolar levels,> 50 µM,> 50 µM,> 50 µM,> 50 µM,> 50 µM,> 50 µM,–,–,"O=C(Nc1ccccc1O)c1ccc(Oc2cccc(C(=O)Nc3ccccc3O)c2)cc1 [Compound 9, N-(2-hydroxyphenyl)-4-{3-[(2-hydroxyphenyl)carbamoyl]phenoxy}benzamide]",–,–,–
micromolar levels,6.6 µM,2.1 µM,> 50 µM,> 50 µM,> 50 µM,> 50 µM,–,5.7 µM,"O=C1COc2cc(NCc3cccc(C(=O)Nc4cccnc4)c3)ccc2N1 [Compound 10, 3-{[(3-oxo-3,4-dihydro-2H-1,4-benzoxazin-7-yl)amino]methyl}-N-(pyridin-3-yl)benzamide]",–,–,–
–,8.3 µM,26.9 µM,4 µM,–,7.6 µM,2.7 µM,inhibit various CYP450 isoforms,8.6 µM,"O=C1COc2cc(NCc3cccc(C(=O)Nc4ccccc4O)c3)ccc2N1 [Compound 11, N-(2-hydroxyphenyl)-3-{[(3-oxo-3,4-dihydro-2H-1,4-benzoxazin-7-yl)amino]methyl}benzamide]",–,–,–
–,1.1 µM,0.6 µM,–,> 50 µM,> 50 µM,> 50 µM,inhibit various CYP450 isoforms,14.5 µM,"O=C1COc2cc(NCc3cccc(C(=O)Nc4cccnc4)c3)c(Cl)cc2N1 [Compound 13, 3-{[(6-chloro-3-oxo-3,4-dihydro-2H-1,4-benzoxazin-7-yl)amino]methyl}-N-(pyridin-3-yl)benzamide]",–,–,–
